Measurements: article PMC8145564, “Phenolic Compounds from Carissa spinarum Are Characterized by Their Antioxidant, Anti-Inflammatory and Hepatoprotective Activities” (Antioxidants, 2021)
Entries after “also recorded” stand apart in the source; their conditions may differ. Marks after values point to notes of the source that are not given here.

How the values were obtained:
[1] = Ferric reducing antioxidant power (FRAP) assay; assay type: biochemical; details: for FRAP total antioxidant activity (result in words): isolated compounds, 6.25 to 100 µM, positive control vitamin C
Method: The FRAP assay was performed according to the methodology reported in [26, 27] with minor modifications. Briefly, the FRAP working solution, composed of 300 mM acetate buffer (pH 3.6), 10 mM TPTZ solution and 20 mM FeCl3·6H2O solution in a ratio of 10:1:1 (v/v/v), was freshly prepared and warmed at 37 °C before use. Then, 190 µL FRAP working solution and 10 µL samples were added in 96-well plates and incubated at 37 °C for 10 min. The absorbance of the reaction mixture was collected by a microplate reader at 593 nm. A standard curve was established by FeSO4 at final concentrations ranging from 1.56 to 200 µM, and the total antioxidant activities of the extracts, compounds and positive controls (vitamin C) were calculated by the standard curve and expressed in terms of the FeSO4 value (µM). All the results were shown by the average values of the three biological replications.

L02 cells [2] = experiment: Hepatoprotective activity on L02 cells against H2O2-induced oxidative stress (SRB cell viability); assay type: cell-based; details: then 300 µM H2O2 for 4 h, % of normal control, H2O2 model group 68.2% (65.2% for vitamin C); for viability at 5 µM: Homo sapiens, L02, 12 h pretreatment
Method: The L02 cells were purchased from BeNa Culture Collection Company (BNCC, Beijing, China) and cultured in RPMI-1640 medium supplemented with 10% fetal bovine serum (FBS) and 1% penicillin–streptomycin solution at 37 °C under 5% CO2 in a humidified incubator. The H2O2 induced oxidative stress model of L02 cell was established according to the reported method with slight modifications. Firstly, 120 µL L02 cell suspension (1 × 10^4 cells) was seeded in a 96-well plate and incubated for 24 h, followed by the addition of 15 µL PBS buffer (corresponding to the addition of tested samples). […] The cell viability was evaluated by the SRB test kit (BestBio, Shanghai, China) following the manufacturer’s instructions. According to the above result, after the 24 h incubation, the L02 cells were pretreated with 15 µL samples of various concentrations or PBS (H2O2-induced model and normal control group) for 12 h. Then, 15 µL H2O2 solution (300 µM) or PBS (normal control group) was added and maintained for 4 h. Finally, the cell viability was tested by the SRB method and expressed as a percentage of the normal control group. Each group was performed in triplicate.

L02 cells [3] = experiment: Quantitation of intracellular ROS (DCFH-DA) in H2O2-induced L02 cells; assay type: cell-based; details: 5 µM final concentration, DCFH-DA fluorescence
Method: The quantitation of intracellular ROS was detected by the ROS assay kit purchased from Beyotime (Shanghai, China) following the manufacturer’s instructions. The cell pretreatment was the same as hepatoprotective activity screening. Four hours later, after the addition of H2O2, the cells were incubated with 10 µM DCFH-DA (final concentration in RPMI-1640 medium) for 30 min, and were then washed three times with medium. Finally, the fluorescence intensity was recorded by a microplate reader with the excitation wavelength at 488 nm and the emission wavelength at 525 nm and then the fluorescence photos were taken by a cell imaging multi-mode reader (Cytation 1, BioTek, Winooski, VT, USA). Each group was performed in triplicate and the fluorescence values were calibrated by the corresponding cell viabilities using the SRB method.

rhCOX-2 = biological target: T1, rhCOX-2 (Homo sapiens, UniProt P35354); experiment: COX-2 inhibition assay (COX-2 inhibitor screening kit, fluorescence probe method)
T1 sequence (P35354 18-604): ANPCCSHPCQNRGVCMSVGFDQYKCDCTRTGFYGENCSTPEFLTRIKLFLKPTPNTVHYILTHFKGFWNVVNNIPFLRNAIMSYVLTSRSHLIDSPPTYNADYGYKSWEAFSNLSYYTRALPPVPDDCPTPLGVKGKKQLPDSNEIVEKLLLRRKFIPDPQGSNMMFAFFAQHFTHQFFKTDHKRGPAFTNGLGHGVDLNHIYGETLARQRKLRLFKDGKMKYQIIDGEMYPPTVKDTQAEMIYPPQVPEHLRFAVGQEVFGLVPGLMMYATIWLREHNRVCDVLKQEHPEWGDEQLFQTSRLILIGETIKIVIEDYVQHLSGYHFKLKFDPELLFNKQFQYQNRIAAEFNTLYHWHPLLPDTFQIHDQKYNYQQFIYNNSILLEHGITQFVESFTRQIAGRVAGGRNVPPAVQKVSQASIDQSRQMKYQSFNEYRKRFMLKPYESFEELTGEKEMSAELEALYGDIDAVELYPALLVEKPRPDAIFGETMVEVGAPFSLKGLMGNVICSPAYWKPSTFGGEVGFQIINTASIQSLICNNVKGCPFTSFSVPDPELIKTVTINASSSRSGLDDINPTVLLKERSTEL
Method: COX-2 inhibition activity was screened using a commercial assay kit by the fluorescence probe method, following the manufacturer’s instructions, based on a two-step reaction: the substrate (arachidonic acid) was firstly catalyzed by COX-2 to generate PGG2, which was then further catalyzed by COX-2 to produce PGH2. During the second step, the probe without fluorescence added in the reaction system was simultaneously catalyzed to probe with strong fluorescence. […] After incubation for 10 min at 37 °C, 5 µL COX-2 substrate and 5 µL COX-2 probe were added and incubated in darkness for 10 min. Then, the fluorescence intensity was recorded by microplate reader with the excitation wavelength at 560 nm and the emission wavelength at 590 nm. The COX-2 activity inhibition percentage was calculated by the following equation: COX-2 activity inhibition (%) = [(F100% activity control − Fsample)/(F100% activity control − Fblank control)] × 100%(2) where F100% activity control, Fsample and Fblank control represent the fluorescence intensity of the 100% enzyme activity control, samples or positive control, and blank control, respectively.

[4] = DPPH radical scavenging activity assay; assay type: biochemical; details: for Antioxidant potential in DPPH and FRAP (result in words): both methods (DPPH and FRAP); for IC50: isolated compounds, final concentrations 6.25 to 100 µM
Method: The 2,2-diphenyl-1-picrylhydrazyl (DPPH) radical scavenging abilities of the C. spinarum extracts and isolated compounds were assessed by the previously reported method. The reaction mixtures containing 190 µL DPPH solution (100 µM) and 10 µL samples (extracts or compounds) or positive control (vitamin C) solutions with various concentrations or blank control (methanol) were placed in the 96-well plate, and incubated in darkness at room temperature for 30 min. Then, the absorbance of the reaction mixture was measured by the microplate reader at 517 nm. All groups were tested in triplicate and the DPPH radical scavenging activity was calculated by the following equation:DPPH-radical scavenging percentage (%) = [(Acontrol − Asample)/Acontrol] × 100%(1)
Acontrol and Asample represent the absorbance of the blank control and samples or positive control, respectively. Additionally, the IC50 values, which were defined as the effective sample concentration when DPPH radical was scavenged by 50%, were calculated by the GraphPad Prism software.

SMILES: COc1cc([C@H]2c3cc(O)c(OC)cc3C[C@@H](CO)[C@@H]2CO[C@@H]2O[C@H](CO)[C@@H](O)[C@H](O)[C@H]2O)ccc1O [Compound 2, (+)-isolariciresinol 3a-O-β-D-glucopyranoside]
- FRAP total antioxidant activity (result in words) [1]: higher reducing capacities than the positive control
- viability at 5 µM (L02 cells [2]): 79.4%
- ROS quantity versus H2O2-induced model group (L02 cells [3]): statistically significant decreases in ROS quantity
- IC50 (rhCOX-2): 0.3 µM

SMILES: CC(=O)c1ccccc1O[C@@H]1OC(CO[C@@H]2OC[C@@H](O)[C@H](O)[C@H]2O)[C@@H](O)[C@H](O)[C@H]1O (stereo partly drawn) [Compound 5, acetophenone-2-O-β-xylopyranosyl-(1→6)-O-β-glucopyranoside]
- Antioxidant potential in DPPH and FRAP (result in words) [4]: no obvious antioxidant potential

SMILES: COc1cc([C@@H](O)[C@@H](C)O)ccc1O [Compound 6, erythro-1-(3-methoxy-4-hydroxy-phenyl)-propan-1,2-diol]
- FRAP total antioxidant activity (result in words) [1]: higher reducing capacities than the positive control

SMILES: COc1cc([C@@H](O)[C@H](C)O)ccc1O [Compound 7, threo-1-(3-methoxy-4-hydroxy-phenyl)-propan-1,2-diol]
- FRAP total antioxidant activity (result in words) [1]: higher reducing capacities than the positive control

SMILES: O=C(O)Cc1cccc(C(=O)O)c1 [Compound 8, 3-carboxymethyl-benzoic acid]
- FRAP total antioxidant activity (result in words) [1]: did not show any activities
- COX-2 inhibition activity (result in words) (rhCOX-2; all tested concentrations, 0.04 to 25 µM): no COX-2 ability in all tested concentrations; also recorded: did not show any activities
- Antioxidant potential in DPPH and FRAP (result in words) [4]: no obvious antioxidant potential
- DPPH scavenging rate at the highest tested concentration ([4]; highest tested concentration (100 µM)): lower than 10%

SMILES: O=C(O)c1ccc(O)c(O)c1 [Compound 9, protocatechuic acid]
- FRAP total antioxidant activity (result in words) [1]: higher reducing capacities than the positive control
- viability at 5 µM (L02 cells [2]): 80.9%
- ROS quantity versus H2O2-induced model group (L02 cells [3]): statistically significant decreases in ROS quantity
- IC50 ([4]; means ± SD (n = 3)): 16.5 ± 1.2 µM

SMILES: O=C1O[C@H]([C@@H](O)CO)C(O)=C1O [Vitamin C, vitamin C, reference compound]
- FRAP ([1]; extracts of C. spinarum root bark, means ± SD (n = 3)): 8.9 ± 1.2 ^b mmol Fe^2+/g
- Viability of L02 cells (L02 cells [2]; 5 µM, 12 h pretreatment): 82.7%
- DPPH IC50 ([4]; extracts of C. spinarum root bark, 30 min, 517 nm, means ± SD (n = 3)): 4.5 ± 0.1 ^d µg/mL
- IC50 ([4]; means ± SD (n = 3)): 25.5 ± 0.3 µM
